Measured values taken from US20220008455A1, “Compound and Composition for Use in the Preventive and/or Curative Treatment of Diseases of the Central Nervous System Characterised by a Decline in Neuronal Plasticity, in Particular Characterised by a Decline in Synaptic Plasticity” (SYNAPHARM INDUSTRIAL SYNTHESIS, priority 2017, published 2022).

System: synaptic responses between Schaffer collaterals and dendrites in the CA1 region
Assay: Long-term potentiation in hippocampal slices of magnesium-deficient rats (restoration of synaptic plasticity)
Type: ex vivo, rat
Procedure: [Comparative experiments were conducted on rats to measure the efficiency of synaptic transmission and synaptic plasticity, in particular in order to measure the recovery of synaptic plasticity.
Three groups of rats were made up as follows:
Group 1: control rats on a normal diet;
Group 2: magnesium-deficient rats on a low-magnesium diet;
Group 3: magnesium-deficient rats supplemented with a composition according to the invention containing magnesium N-acetyl taurinate dihydrate containing two intrinsic water molecules (ATAMg dihydrate) at a dose of […] magnesium N-acetyl taurinate dihydrate containing two intrinsic water molecules (in the water). Supplementation was started 40 days after the beginning of the low-magnesium diet and was carried on for 24 days.
The hippocampi of the rats from each group were dissected to measure synaptic plasticity. In particular, synaptic responses were measured between Schaffer collaterals and dendrites in the CA1 region. A baseline was recorded for 30 minutes corresponding to a synaptic response of 40% of the peak response. Then the long-term plasticity process was induced by applying four 100 Hz trains at 5-minute intervals. The increased response was measured over four hours. For every experiment, a control pathway without any high-frequency stimulation was also measured.

In the case of `CC(=O)NCCS(=O)(=O)[O-].CC(=O)NCCS(=O)(=O)[O-].O.O.[Mg+2]` [magnesium N-acetyl taurinate dihydrate], the long-term potentiation (Group 3: magnesium-deficient rats supplemented in the water at 50 mg/kg/hour (50 mg/kg/day) for 24 days, four 100 Hz trains, response measured over four hours, FIG. 3) is reported as “over 300%”, the “control pathway / baseline stability” value (Group 3: magnesium-deficient rats supplemented in the water for 24 days, control pathway without high-frequency stimulation, FIG. 3) is reported as “stabilisation of the baseline” and the “recovery/restoration of synaptic plasticity” value (comparison of Group 3 (supplemented) with Group 2 (magnesium-deficient rats)) is reported as “induces the recovery/restoration of synaptic plasticity”.
